According to the NIST ThermoML archive (doi:10.1016/j.fluid.2004.12.005):
Numbers after ± are expanded uncertainties.

Legend:
[1] = activity coefficient (dimensionless); of the first substance listed, at infinite dilution; xn = mol fraction of the nth substance listed; details: Liquid, Chromatography, x1 = 0
[2] = Solid-liquid equilibrium temperature; details: 100 kPa; Crystal; visual observation
[3] = excess molar enthalpy (molar enthalpy of mixing); xn = mol fraction of the nth substance listed; details: Liquid, Flow calorimetry

CC(=O)OC(C)C [1-methylethyl ethanoate] + CCCCCCCCCCCC
[1]
Details	activity coefficient
303.16 K	2.82 ± 0.17
313.17 K	2.66 ± 0.16
323.2 K	2.52 ± 0.15
333.16 K	2.42 ± 0.14

CC(=O)OC(C)C [1-methylethyl ethanoate] + CCCCCCCCCC
[1]
Details	activity coefficient
303.16 K	2.56 ± 0.15
313.14 K	2.48 ± 0.15
323.17 K	2.41 ± 0.14
333.16 K	2.36 ± 0.14

c1ccccc1 [benzene]
Details	Solid-liquid equilibrium temperature [K]
[2]	278.94 ± 0.17

CCCCCCCCCC [decane] + CCOC(C)=O
[3]
Details	excess molar enthalpy [kcal/mol]
363.15 K, 1397 kPa, x2 = 0.0952	0.112 ± 0.00239
363.15 K, 1397 kPa, x2 = 0.1817	0.198 ± 0.0043
363.15 K, 1397 kPa, x2 = 0.2607	0.261 ± 0.0055
363.15 K, 1397 kPa, x2 = 0.3332	0.304 ± 0.00645
363.15 K, 1397 kPa, x2 = 0.3998	0.333 ± 0.00717
363.15 K, 1397 kPa, x2 = 0.4614	0.349 ± 0.00741
363.15 K, 1397 kPa, x2 = 0.5183	0.356 ± 0.00765
363.15 K, 1397 kPa, x2 = 0.5712	0.355 ± 0.00765
363.15 K, 1397 kPa, x2 = 0.6205	0.347 ± 0.00741
363.15 K, 1397 kPa, x2 = 0.6665	0.335 ± 0.00717
363.15 K, 1397 kPa, x2 = 0.7095	0.316 ± 0.00669
363.15 K, 1397 kPa, x2 = 0.7499	0.292 ± 0.00621
363.15 K, 1397 kPa, x2 = 0.7878	0.266 ± 0.00574
363.15 K, 1397 kPa, x2 = 0.8234	0.236 ± 0.00502
363.15 K, 1397 kPa, x2 = 0.8571	0.202 ± 0.0043
363.15 K, 1397 kPa, x2 = 0.8888	0.167 ± 0.00359
363.15 K, 1397 kPa, x2 = 0.9189	0.129 ± 0.00287
363.15 K, 1397 kPa, x2 = 0.9473	0.0868 ± 0.00191
363.15 K, 1397 kPa, x2 = 0.9743	0.0437 ± 0.001
413.15 K, 1342 kPa, x2 = 0.0952	0.116 ± 0.00263
413.15 K, 1342 kPa, x2 = 0.1817	0.204 ± 0.0043
413.15 K, 1342 kPa, x2 = 0.2607	0.268 ± 0.00574
413.15 K, 1342 kPa, x2 = 0.3332	0.314 ± 0.00669
413.15 K, 1342 kPa, x2 = 0.3998	0.346 ± 0.00741
413.15 K, 1342 kPa, x2 = 0.4614	0.363 ± 0.00789
413.15 K, 1342 kPa, x2 = 0.5183	0.371 ± 0.00789
413.15 K, 1342 kPa, x2 = 0.5713	0.372 ± 0.00789
413.15 K, 1342 kPa, x2 = 0.6205	0.363 ± 0.00789
413.15 K, 1342 kPa, x2 = 0.6665	0.351 ± 0.00741
413.15 K, 1342 kPa, x2 = 0.7095	0.329 ± 0.00693
413.15 K, 1342 kPa, x2 = 0.7499	0.306 ± 0.00645
413.15 K, 1342 kPa, x2 = 0.7878	0.277 ± 0.00598
413.15 K, 1342 kPa, x2 = 0.8234	0.244 ± 0.00526
413.15 K, 1342 kPa, x2 = 0.8571	0.209 ± 0.00454
413.15 K, 1342 kPa, x2 = 0.8888	0.171 ± 0.00359
413.15 K, 1342 kPa, x2 = 0.9189	0.131 ± 0.00287
413.15 K, 1342 kPa, x2 = 0.9473	0.0884 ± 0.00194
413.15 K, 1342 kPa, x2 = 0.9743	0.0466 ± 0.00105

COC(C)=O [methyl ethanoate] + CCCCCCCCCC
[3]
Details	excess molar enthalpy [kcal/mol]
363.15 K, 1582 kPa, x1 = 0.1148	0.164 ± 0.00359
363.15 K, 1582 kPa, x1 = 0.2149	0.282 ± 0.00598
363.15 K, 1582 kPa, x1 = 0.303	0.361 ± 0.00765
363.15 K, 1582 kPa, x1 = 0.3811	0.413 ± 0.00884
363.15 K, 1582 kPa, x1 = 0.4509	0.442 ± 0.00956
363.15 K, 1582 kPa, x1 = 0.5135	0.455 ± 0.0098
363.15 K, 1582 kPa, x1 = 0.5701	0.458 ± 0.0098
363.15 K, 1582 kPa, x1 = 0.6215	0.45 ± 0.00956
363.15 K, 1582 kPa, x1 = 0.6684	0.434 ± 0.00932
363.15 K, 1582 kPa, x1 = 0.7112	0.415 ± 0.00884
363.15 K, 1582 kPa, x1 = 0.7507	0.387 ± 0.00837
363.15 K, 1582 kPa, x1 = 0.787	0.356 ± 0.00765
363.15 K, 1582 kPa, x1 = 0.8206	0.321 ± 0.00693
363.15 K, 1582 kPa, x1 = 0.8518	0.283 ± 0.00598
363.15 K, 1582 kPa, x1 = 0.8808	0.242 ± 0.00526
363.15 K, 1582 kPa, x1 = 0.9079	0.199 ± 0.0043
363.15 K, 1582 kPa, x1 = 0.9331	0.152 ± 0.00335
363.15 K, 1582 kPa, x1 = 0.9568	0.103 ± 0.00225
363.15 K, 1582 kPa, x1 = 0.9791	0.0532 ± 0.0012
413.15 K, 1376 kPa, x1 = 0.1148	0.153 ± 0.00335
413.15 K, 1376 kPa, x1 = 0.2149	0.261 ± 0.0055
413.15 K, 1376 kPa, x1 = 0.303	0.335 ± 0.00717
413.15 K, 1376 kPa, x1 = 0.3811	0.385 ± 0.00813
413.15 K, 1376 kPa, x1 = 0.4509	0.416 ± 0.00884
413.15 K, 1376 kPa, x1 = 0.5136	0.431 ± 0.00908
413.15 K, 1376 kPa, x1 = 0.5702	0.434 ± 0.00932
413.15 K, 1376 kPa, x1 = 0.6215	0.427 ± 0.00908
413.15 K, 1376 kPa, x1 = 0.6684	0.413 ± 0.00884
413.15 K, 1376 kPa, x1 = 0.7113	0.396 ± 0.00837
413.15 K, 1376 kPa, x1 = 0.7507	0.37 ± 0.00789
413.15 K, 1376 kPa, x1 = 0.787	0.341 ± 0.00717
413.15 K, 1376 kPa, x1 = 0.8206	0.308 ± 0.00669
413.15 K, 1376 kPa, x1 = 0.8518	0.271 ± 0.00574
413.15 K, 1376 kPa, x1 = 0.8808	0.232 ± 0.00502
413.15 K, 1376 kPa, x1 = 0.9079	0.19 ± 0.00406
413.15 K, 1376 kPa, x1 = 0.9332	0.145 ± 0.00311
413.15 K, 1376 kPa, x1 = 0.9568	0.0981 ± 0.00215
413.15 K, 1376 kPa, x1 = 0.9791	0.0501 ± 0.00112
